Measured values from patent publication EP1149079B1, “TETRAHYDRO ISOQUINO LINEALKANOL DERIVATIVES AND PHARMACEUTICAL COMPOSITIONS CONTAINING SAME” (SK Corporation, priority 1999, dated 2000).

Assays:
[1] = tested on: mice; assay: Head-twitch test (5-HTP-induced head-twitch response); type: in vivo; conditions: oral, head twitches counted in a 2-minute period 30 min after 5-HTP 100 mg/kg ip, versus vehicle control
Description: The head-twitch response of mice is initiated by a variety of 5-HT mimetic drugs. The test was conducted in a manner similar to the procedure described by Heal, D.J., Philpot, J, O'Shaughnessy, K.M. and Davies, C.L.: The influence of central noradrenergic function on 5-HT-mediated head-twitch responses in mice: Possible implications for the actions of antidepressant drugs. Psychopharmacology 89: 414-420, 1986,
The head-twitch consisted of a characteristic rotation of the head, neck and shoulders of the mice. The test drug or vehicle was given by oral gavage. Thirty minutes later all animals were pretreated with carbidopa (25 mg/kg ip). Fifteen minutes following carbidopa administration, the mice were injected with 100 mg/kg ip of L-5-hydroxytryptophan (5-HTP). The animals were then left for 30 minutes before measurement of the head-twitch response in the following 2-minute period. For calculation of percent (%) response increase, the difference in drug head twitch number versus the control vehicle head twitch number is divided by the control head twitch and multiplied by 100.

[2] = tested on: mice; assay: Behavior Despair (Forced Swimming) test, mice dosed ip; type: in vivo; conditions: reduction in immobility time versus vehicle; dose 30 mg/kg (ip); one hour after dosing; 15-minute test period
Description: (§1) Behavior Despair (Forced Swimming) test, a well known pharmacological screening method for depression, was conducted similar to the test described by Porsolt, R.D., Bertin, A. and Jalfre, M.: Behavior despair in mice: A preliminary screening test for antidepressants. Arch. Int. Pharmacodyn. Ther. 229: 327-336, 1977.
Mice were dosed intraperitoneally (ip) with either test compound or vehicle. One hour later each animal was placed in a 1500 mL glass beaker containing water at room temperature. Mice were kept in the water for a period of 15 minutes and the duration of immobility observed within the 15-minute test period was recorded. A mouse was judged to be immobile if it floated motionlessly in the water making only those movements necessary to keep its head above the water. For calculation of percent (%) reduction in immobility time, the difference in immobility time for control vehicle versus the drug is divided by the immobility time of the control vehicle and multiplied by 100.

[3] = molecular target: T1, MAO-A (Rattus norvegicus, UniProt P21396); assay: MAO-A inhibiting activity in vitro, radioisotopic assay with [14C] serotonin; type: biochemical; conditions: Rat liver mitochondrial membranes, 300 nM deprenyl to block MAO-B, preincubation 60 minutes at 37°C
T1 construct: Rat liver mitochondrial membranes as the source of the enzyme; from tissue; host or cells: rat liver mitochondrial membranes
T1 sequence (P21396 1-526): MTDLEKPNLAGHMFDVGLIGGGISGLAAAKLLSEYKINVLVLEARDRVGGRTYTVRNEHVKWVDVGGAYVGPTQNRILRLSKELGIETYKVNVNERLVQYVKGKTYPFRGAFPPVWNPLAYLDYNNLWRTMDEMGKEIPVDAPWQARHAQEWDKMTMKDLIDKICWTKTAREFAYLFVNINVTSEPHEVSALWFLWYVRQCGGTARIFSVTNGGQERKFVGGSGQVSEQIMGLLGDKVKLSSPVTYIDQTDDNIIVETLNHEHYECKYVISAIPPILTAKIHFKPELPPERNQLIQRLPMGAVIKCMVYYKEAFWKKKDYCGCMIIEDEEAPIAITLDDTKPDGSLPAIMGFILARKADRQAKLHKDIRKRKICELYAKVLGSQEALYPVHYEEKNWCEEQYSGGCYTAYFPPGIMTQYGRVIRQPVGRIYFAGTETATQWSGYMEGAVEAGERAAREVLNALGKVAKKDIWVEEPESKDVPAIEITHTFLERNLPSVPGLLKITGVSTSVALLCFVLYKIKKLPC
Description: The MAO-A activities in vitro were measured using Rat liver mitochondrial membranes as the source of the enzyme, according to modified method of S. Otsuka & Y. Kobayashi. A Radioisotopic Assay for Monoamine Oxidase Determinations in Human Plasma. Biochem. Pharmacol. 13: 995-1006 (1964)
Rat liver mitochondrial membranes is preincubated with drug or vehicle, and subtype selective blocker (300 nM deprenyl to block the B type of MAO) for 60 minutes at 37°C in 100 mM KPO4 (pH 7.2). [^14C] Serotonin ([…]) is then added and incubated for 10 minutes. The reaction is stopped by the addition of 0.5 ml of 2M citric acid. Radioactive product is extracted into a toluene/ethyl acetate fluor and compared to control values by scintillation spectrophotometry in order to ascertain any interactions of test compounds with MAO-A.

[4] = tested on: Rats; assay: Behavior Despair (Forced Swimming) test, rats dosed po; type: in vivo; conditions: reduction in immobility time versus vehicle; dose 60 mg/kg (po); one hour after dosing; 4-minute test period
Description: as §1
Rats were pre-swam for 10 minute the day before the test in 4000 mL glass cylinders containing water at 25°C. On the following day, rats were dosed orally (po) with either test compound or vehicle. One hour later each animal was placed in the glass cylinder and, following a 2-minute pretest, immobility was recorded for a 4-minute test period. For calculation of percent (%) reduction in immobility time, the difference in immobility time for control vehicle versus the drug is divided by the immobility time of the control vehicle and multiplied by 100.

NC(=O)OCC1Cc2ccccc2CN1 (racemic) [Example 5, (RS)-3-Carbamoyloxymethyl-1,2,3,4-tetrahydroisoquinoline]
% Response Increase ([1]; dose 3 mg/kg): 144%

CNC(=S)OC[C@@H]1Cc2ccccc2CN1C(=O)Nc1ccccc1 [Example 17, (S)-3-(N-Methyl-thiocarbamoyloxymethyl)-N-(anilinocarbonyl)-1,2,3,4-tetrahydroisoquinoline]
% Reduction [2]: 46%

NC(=S)OCC1Cc2ccccc2CN1 (centres unmarked) [Example 14, 3-Thiocarbamoyloxymethyl-1,2,3,4-tetrahydroisoquinoline]
% Response Increase ([1]; dose 8 mg/kg): 42%

CNC(=S)OC[C@@H]1Cc2ccccc2CN1C [Example 18, (S)-3-(N-Methylthiocarbamoyloxymethyl)-N-methyl-1,2,3,4-tetrahydroisoquinoline]
% Reduction [2]: 33%

NC(=O)OC[C@H]1Cc2ccccc2CN1 [Example 4, (R)-3-Carbamoyloxymethyl-1,2,3,4-tetrahydroisoquinoline]
% Response Increase ([1]; dose 15 mg/kg): 258% | inhibition at 10 µM [3]: 63.9%

CN1Cc2ccccc2C[C@H]1COC(N)=O [Example 8, (S)-3-Carbamoyloxymethyl-N-methyl-1,2,3,4-tetrahydroisoquinoline]
% Response Increase ([1]; dose 1 mg/kg): 77%

CNC(=S)OC[C@@H]1Cc2ccccc2CN1 [Example 16, (S)-3-(N-Methylthiocarbamoyloxymethyl)-1,2,3,4-tetrahydroisoquinoline]
% Reduction [2]: 56%

NC(=O)OC[C@@H]1Cc2ccccc2CN1 [Example 3, (S)-3-Carbamoyloxymethyl-1,2,3,4-tetrahydroisoquinoline]
% Response Increase ([1]; dose 1 mg/kg): 238% | % Reduction [4]: 83% | inhibition at 10 µM [3]: 97.7%
